ChEMBL document CHEMBL6182884, “Synthesis and structure-activity evaluation of a series of novel tricyclic STING activators” (Eur J Med Chem, 2025)

Each compound was assayed against Stimulator of interferon genes protein (Homo sapiens, UniProt Q86WV6) (assay: Activation of human STING R232 variant transfected in HEK293T cells expressing ISRE.ISG54 luciferase reporter assessed as secretory reporter gene activity by measuring luciferase level incubated for 20 hrs by luminometer).
Type: cell-based

Chain of Stimulator of interferon genes protein (Q86WV6 whole entry, looked up): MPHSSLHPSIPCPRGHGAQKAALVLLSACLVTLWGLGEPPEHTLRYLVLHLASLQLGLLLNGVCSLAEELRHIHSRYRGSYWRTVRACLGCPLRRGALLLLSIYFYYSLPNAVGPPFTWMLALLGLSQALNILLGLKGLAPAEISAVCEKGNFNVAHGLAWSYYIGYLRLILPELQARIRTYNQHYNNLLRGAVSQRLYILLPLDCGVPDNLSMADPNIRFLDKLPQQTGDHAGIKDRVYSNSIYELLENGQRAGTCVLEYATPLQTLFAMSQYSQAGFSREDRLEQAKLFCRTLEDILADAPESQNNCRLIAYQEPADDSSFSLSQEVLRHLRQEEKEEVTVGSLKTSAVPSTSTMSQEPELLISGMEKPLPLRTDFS

| Structure (SMILES) | EC50 |
| --- | --- |
| O=C(NCc1c(F)cc(F)cc1F)c1ccc2c(c1)-n1c(nnc1-c1ccccc1)CS2 | 2080 nM |
| CC1Sc2ncc(C(=O)NCc3cc4ccccc4o3)cc2-n2c(-c3ccccc3)nnc21 (racemic) | 414 nM |
| CC1Sc2ccc(C(=O)NCc3c(F)cc(F)cc3F)cc2-n2c(Cc3ccccc3)nnc21 (racemic) | 1540 nM |
| CC1Sc2ccc(C(=O)NCc3c(F)cc(F)cc3F)cc2-n2c(-c3ccc(F)cc3)nnc21 (racemic) | 373 nM |
| Cc1cccc(-c2nnc3n2-c2cc(C(=O)NCc4c(F)cc(F)cc4F)ccc2SC3C)c1 (racemic) | 1560 nM |
| CC1Sc2ccc(C(=O)NCc3c(F)cc(F)cc3F)cc2-n2c(-c3cccc(F)c3)nnc21 (racemic) | 2880 nM |
| CC1Sc2ccc(C(=O)NCc3c(F)cc(F)cc3F)cc2-n2c(-c3ccncc3)nnc21 (racemic) | 1630 nM |
| CC1Sc2ccc(C(=O)NCc3c(F)cc(F)cc3F)cc2-n2c(-c3ccccc3F)nnc21 (racemic) | 804 nM |
| CC1Sc2ccc(C(=O)NCc3c(F)cc(F)cc3F)cc2-n2c(-c3ccc(Cl)cc3F)nnc21 (racemic) | 1970 nM |
| Cc1ccc(-c2nnc3n2-c2cc(C(=O)NCc4c(F)cc(F)cc4F)ccc2SC3C)cc1 (racemic) | 3810 nM |
| CC1Sc2ncc(C(=O)NCc3cc4cc(F)ccc4o3)cc2-n2c(-c3ccc(F)cc3)nnc21 (racemic) | 111 nM |

The next lines start with the values.

| EC50 | Structure (SMILES) |
| --- | --- |
| 40 nM | C[C@@H]1Sc2ccc(C(=O)NCc3cc4cc(F)ccc4o3)cc2-n2c(-c3ccc(F)cc3)nnc21 |
| 1090 nM | C[C@H]1Sc2ccc(C(=O)NCc3cc4cc(F)ccc4o3)cc2-n2c(-c3ccc(F)cc3)nnc21 |
| 48 nM | CC1Sc2ccc(C(=O)NCc3cc4cc(F)ccc4o3)cc2-n2c(-c3ccc(F)cc3)nnc21 (racemic) |
| 53 nM | CC1Sc2ccc(C(=O)NCc3cc4cc(F)ccc4o3)cc2-n2c(-c3ccc(F)cc3F)nnc21 (racemic) |
| 65 nM | CC1Sc2ccc(C(=O)NCc3cc4ccc(F)cc4o3)cc2-n2c(-c3ccc(F)cc3)nnc21 (racemic) |
| 45 nM | CC1Sc2ccc(C(=O)NCc3cc4cc(F)c(F)cc4o3)cc2-n2c(-c3ccc(F)cc3)nnc21 (racemic) |
